The text below walks through data of patent US7829560B2, “1,4-disubstituted naphthalenes as inhibitors of P38 MAP kinase” (Arqule, Inc., priority 2004, dated 2010).

What is called IC50 is the point on the concentration scale where inhibition reaches its midpoint. One may read the melting point as the temperature of the solid-liquid transition.

For series [1], the system named is TNFα release from THP-1 cells. The series is described as follows: Inhibition of TNFα release from LPS-stimulated THP-1 cells, ELISA. In kind it is cell-based. The conditions noted are these: Homo sapiens, THP-1, THP-1 cells, read-out: [CELL] THP-1, IC50, TNF ALPHA, ELISA. The gist of the method: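 TNFα released into supernatant after 18 h of 10 μg/ml LPS stimulation was quantified by ELISA and IC50 taken as 50% reduction by non-linear regression. THP-1 cells (10^6/ml; medium with 10% FBS, serum-free or 1% HSA) saw compound for 30 min at 37 °C beforehand; final DMSO ≤0.5%.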

Another series deals with T1, p38α (Homo sapiens, UniProt Q16539).
T1 construct: p38 MAP Kinases are recombinant human full-length proteins with an amino-terminal GST fusion; GST (N); purchased Upstate Biotechnology Inc; host or cells: E. coli
The series is described as follows: p38 MAP Kinase assay: inhibition of ATF2 phosphorylation, ELISA. The class given is biochemical. The conditions noted are these: for IC50: ATF2 phosphorylation, read-out: [ENZ] P38 ALPHA, IC50, ELISA. The gist of the method: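 In vitro phosphorylation of ATF2 at Thr69 by recombinant human GST-p38 MAP kinase, read by anti-phospho-ATF2 ELISA at 450 nm. Enzyme and compound pre-incubated 15 min at RT, then 30 min reaction at 37 °C with 40 μM ATP and 1.25 μM ATF2; buffer with or without 1% HSA (Method II or I).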
(ELISA stands for enzyme-linked immunosorbent assay.)

T1 sequence (Q16539 whole entry, the tested form may be a part): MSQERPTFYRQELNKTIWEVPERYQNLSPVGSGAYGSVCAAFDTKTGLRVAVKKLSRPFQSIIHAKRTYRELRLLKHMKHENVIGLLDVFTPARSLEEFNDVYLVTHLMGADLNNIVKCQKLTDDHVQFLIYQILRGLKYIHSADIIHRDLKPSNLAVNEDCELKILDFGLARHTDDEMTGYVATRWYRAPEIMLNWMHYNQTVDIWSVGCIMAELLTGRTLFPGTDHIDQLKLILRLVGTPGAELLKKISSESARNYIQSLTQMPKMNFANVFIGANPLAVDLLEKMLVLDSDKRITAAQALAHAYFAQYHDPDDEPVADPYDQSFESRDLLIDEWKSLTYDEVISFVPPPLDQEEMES

In turn, `CSc1nccc(Oc2ccc(NC(=O)c3cc(F)cc(N4CCCC4)c3)c3ccccc23)n1` [Compound B264, 3-Fluoro-N-(4-{[2-(methylthio)pyrimidin-4-yl]oxy}-1-naphthyl)-5-pyrrolidin-1-ylbenzamide] had a melting point of 180 to 181 °C. For the same compound, in series [1], the IC50 amounted to 177 nM. On p38α, the 50% inhibitory concentration (IC50) was found to be 189 nM.
Take `CSc1nccc(Oc2ccc(NC(=O)c3cc(F)cc(N4CCC(C)CC4)c3)c3ccccc23)n1` [Compound B247, 3-Fluoro-5-(4-methylpiperidin-1-yl)-N-(4-{[2-(methylthio)pyrimidin-4-yl]oxy}-1-naphthyl)benzamide]: the melting point is 142 to 143 °C. Besides, the concentration for half-maximal inhibition (IC50) in series [1] is 780 nM. At p38α, the IC50 stood at 587 nM.
The like results for `CN(C)[C@@H]1CCN(c2nccc(Oc3ccc(NC(=O)c4cc(F)cc(N5CCCCC5)c4)c4ccccc34)n2)C1` [Compound B405, N-[4-({2-[(3R)-3-(Dimethylamino)pyrrolidin-1-yl]pyrimidin-4-yl}oxy)-1-naphthyl]-3-fluoro-5-piperidin-1-ylbenzamide] were, in that order, 93 to 94 °C, 202 nM and 30.4 nM.
As to `CN(CC1OCCO1)c1nccc(Oc2ccc(NC(=O)c3cc(F)cc(N4CCCCC4)c3)c3ccccc23)n1` [Compound B395, N-[4-({2-[(1,3-Dioxolan-2-ylmethyl)(methyl)amino]pyrimidin-4-yl}oxy)-1-naphthyl]-3-fluoro-5-piperidin-1-ylbenzamide], the melting point was 125 to 127 °C. Moreover, the IC50 in series [1] was 212 nM. Further, the IC50 at p38α stood at 31.3 nM.
The like results for `CSc1nccc(Oc2ccc(NC(=O)c3cc(F)cc(OC4CCCCC4)c3)c3ccccc23)n1` [Compound B303, 3-(Cyclohexyloxy)-5-fluoro-N-(4-{[2-(methylthio)pyrimidin-4-yl]oxy}-1-naphthyl)benzamide] were, in that order, 130 to 132 °C, 232 nM and 275 nM.
Compound `COCCNc1nccc(Oc2ccc(NC(=O)c3cc(F)cc(N4CCOCC4)c3)c3ccccc23)n1` [Compound B319, 3-Fluoro-N-[4-({2-[(2-methoxyethyl)amino]pyrimidin-4-yl}oxy)-1-naphthyl]-5-morpholin-4-ylbenzamide] returned a melting point of 95 to 97 °C. For the same compound, the concentration for half-maximal inhibition (IC50) in series [1] amounted to 59.3 nM. Further, the half-maximal inhibitory concentration (IC50) at p38α turned out to be 1 nM.
The matching figures for `C#CCN(C)c1nccc(Oc2ccc(NC(=O)c3cc(F)cc(N4CCCCC4)c3)c3ccccc23)n1` [Compound B407, 3-Fluoro-N-[4-({2-[methyl(prop-2-yn-1-yl)amino]pyrimidin-4-yl}oxy)-1-naphthyl]-5-piperidin-1-ylbenzamide]: 116 to 117 °C, 700 nM and 56.1 nM.
The like results for `O=C(Nc1ccc(OCCN2CCOCC2)c2ccccc12)c1cc(F)cc(OC2CCCCC2)c1` [Compound B195, 3-(Cyclohexyloxy)-5-fluoro-N-[4-(2-morpholin-4-ylethoxy)-1-naphthyl]benzamide] were, in that order, 116 to 118 °C, over 10000 nM and 413 nM.
The matching figures for `O=C(Nc1ccc(Oc2ccnc(N3CCCCC3)n2)c2ccccc12)c1cc(F)cc(N2CCOCC2)c1` [Compound B324, 3-Fluoro-5-morpholin-4-yl-N-{4-[(2-piperidin-1-ylpyrimidin-4-yl)oxy]-1-naphthyl}benzamide]: 190 to 191 °C, over 1000 nM and 19 nM.
Consider `CC(C)(C)Oc1cccc(C(=O)Nc2ccc(OCCN3CCOCC3)c3ccccc23)c1` [Compound B65, 3-tert-Butoxy-N-[4-(2-morpholin-4-yl-ethoxy)-naphthalen-1-yl]-benzamide], for which the melting point is 50 to 51 °C. Further, the IC50 in series [1] was 3420 nM. In addition, the 50% inhibitory concentration (IC50) at p38α was 614 nM.
The matching figures for `CS(=O)(=O)CCNc1nccc(Oc2ccc(NC(=O)c3cc(F)cc(N4CCCCC4)c3)c3ccccc23)n1` [Compound B422, 3-Fluoro-N-{4-[(2-{[2-(methylsulfonyl)ethyl]amino}pyrimidin-4-yl)oxy]-1-naphthyl}-5-piperidin-1-ylbenzamide]: 102 to 104 °C, 63.2 nM and 1.6 nM.
The matching figures for `CC1CCC(Nc2nccc(Oc3ccc(NC(=O)c4cc(F)cc(N5CCCCC5)c4)c4ccccc34)n2)CC1` (stereo not shown) [Compound B388, 3-Fluoro-N-[4-({2-[(4-methylcyclohexyl)amino]pyrimidin-4-yl}oxy)-1-naphthyl]-5-piperidin-1-ylbenzamide]: 101 to 102 °C, 102 nM and 42.7 nM.
For the compound `O=C(Nc1ccc(Oc2ccnc(NC3CCCCC3)n2)c2ccccc12)c1cc(F)cc(N2CCCCC2)c1` [Compound B371, N-(4-{[2-(cyclohexylamino)pyrimidin-4-yl]oxy}-1-naphthyl)-3-fluoro-5-piperidin-1-ylbenzamide], the melting point is 118 to 120 °C. Further, the half-inhibitory concentration (IC50) in series [1] is 37.1 nM. Besides, the IC50 on p38α was found to be 26.4 nM.
Compound `O=C(Nc1ccc(OCCN2CCOCC2)c2ccccc12)c1cc(F)cc(N2CCCCC2)c1` [Compound B66, 3-Fluoro-N-[4-(2-morpholin-4-ylethoxy)-1-naphthyl]-5-piperidin-1-ylbenzamide] had a melting point of 150 to 151 °C. Moreover, the half-inhibitory concentration (IC50) in series [1] came to 6050 nM. Moreover, the IC50 on p38α was found to be 112 nM.
The like results for `O=C1CN(c2nccc(Oc3ccc(NC(=O)c4cc(F)cc(N5CCCCC5)c4)c4ccccc34)n2)CCN1` [Compound B421, 3-Fluoro-N-(4-{[2-(3-oxopiperazin-1-yl)pyrimidin-4-yl]oxy}-1-naphthyl)-5-piperidin-1-ylbenzamide] were, in that order, 140 to 142 °C, 689 nM and 17.8 nM.
The like results for `O=C1CN(CCCOc2ccc(NC(=O)c3cc(F)cc(N4CCCCC4)c3)c3ccccc23)CCN1` [Compound B175, 3-Fluoro-N-{4-[3-(3-oxo-piperazin-1-yl)-propoxy]-naphthalen-1-yl}-5-piperidin-1-yl-benzamide] were, in that order, 90 to 92 °C, over 10000 nM and 1110 nM.
The like results for `O=C(Nc1ccc(Oc2ccnc(NCc3ccccc3)n2)c2ccccc12)c1cc(F)cc(N2CCOCC2)c1` [Compound B249, N-(4-{[2-(Benzylamino)pyrimidin-4-yl]oxy}-1-naphthyl)-3-fluoro-5-morpholin-4-ylbenzamide] were, in that order, 121 to 123 °C, 12.4 nM and 13.9 nM.
For the compound `CSc1nccc(-c2ccc(NC(=O)c3cc(F)cc(N4CCOCC4)c3)c3ccccc23)n1` [Compound B270, 3-Fluoro-N-[4-(2-methylsulfanyl-pyrimidin-4-yl)-naphthalen-1-yl]-5-morpholin-4-yl-benzamide], the melting point was 135 to 138 °C. In addition, the IC50 in series [1] came out at 6420 nM. Further, at p38α, the IC50 is 1650 nM.
Consider `CC1CC(C)CN(c2nccc(Oc3ccc(NC(=O)c4cc(F)cc(N5CCOCC5)c4)c4ccccc34)n2)C1` (stereo not shown) [Compound B348, N-(4-{[2-(3,5-Dimethylpiperidin-1-yl)pyrimidin-4-yl]oxy}-1-naphthyl)-3-fluoro-5-morpholin-4-ylbenzamide], for which the melting point fell in the range of 102 to 104 °C. In addition, in series [1], the half-inhibitory concentration (IC50) is over 1000 nM. The IC50 on p38α came out at 166 nM.
Turning to `CC(=O)N1CCN(CCCOc2ccc(NC(=O)c3cc(F)cc(N4CCCCC4)c3)c3ccccc23)CC1` [Compound B165, N-{4-[3-(4-Acetyl-piperazin-1-yl)-propoxy]-naphthalen-1-yl}-3-fluoro-5-piperidin-1-yl-benzamide], the melting point lay in the range of 210 to 211 °C. Moreover, the concentration for half-maximal inhibition (IC50) in series [1] was over 10000 nM. The inhibition at 10 µM at p38α (10 uM, substrate ATF2, read-out: [ENZ] P38 ALPHA, PCT INH, ELISA (10 uM;ATF2) (Percent)) was determined as 84%. Besides, the concentration for half-maximal inhibition (IC50) at p38α was 997 nM.
For the compound `CC(C)(C)OC(=O)N1CCN(c2nccc(Oc3ccc(NC(=O)c4cc(F)cc(N5CCOCC5)c4)c4ccccc34)n2)CC1` [Compound B340, t-Butyl-4-[4-({4-[(3-fluoro-5-morpholin-4-ylbenzoyl)amino]-1-naphthyl}oxy)pyrimidin-2-yl]piperazine-1-carboxylate], the melting point lay within 131 to 133 °C. Besides, the IC50 in series [1] is over 1000 nM. In addition, the concentration for half-maximal inhibition (IC50) at p38α was determined as 55.9 nM.
With `O=C(Nc1ccc(Oc2ccnc(NC3CC3)n2)c2ccccc12)c1cc(F)cc(N2CCOCC2)c1` [Compound B321, N-(4-{[2-(Cyclopropylamino)pyrimidin-4-yl]oxy}-1-naphthyl)-3-fluoro-5-morpholin-4-ylbenzamide], the melting point fell in the range of 118 to 120 °C. Further, the IC50 in series [1] came out at 76.1 nM. In addition, at p38α, the half-inhibitory concentration (IC50) stood at 3.1 nM.
The matching figures for `COCC(C)Nc1nccc(Oc2ccc(NC(=O)c3cc(F)cc(N4CCCCC4)c3)c3ccccc23)n1` (stereo not shown) [Compound B392, 3-Fluoro-N-[4-({2-[(2-methoxy-1-methylethyl)amino]pyrimidin-4-yl}oxy)-1-naphthyl]-5-piperidin-1-ylbenzamide]: 94 to 95 °C, 122 nM and 7.1 nM.
